Where “and” joins values, the source holds several entries; their conditions need not be identical. Equal entries are not always repeated. Inconclusive results and toxic doses are left out.
System: BDF1 mice, P388 leukemia ip, median survival T/C
Assay: NCI In Vivo Anticancer Drug Screen. Data for tumor model P388 Leukemia (intraperitoneal) in B6D2F1 (BDF1) mice
Details: endpoint: median survival time, higher = longer survival
Summary of the method: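 Read-out is survival of treated animals expressed relative to the vehicle group, as a T/C ratio.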

[1] = dose: 12.5 mg/kg/injection, schedule: Q01DX009 (ip), vehicle: saline with Tween-80

Which results are given for CCOC(=O)N1Cc2cc3ccccc3nc2C1CC(=O)O (stereo unspecified)?
T/C (dose: 100.0 mg/kg/injection, schedule: Q04DX003 (ip), vehicle: Klucel (hydroxypropylcellulose) (HPC)): 100 % of control; T/C (dose: 200.0 mg/kg/injection, schedule: Q04DX003 (ip), vehicle: Klucel (hydroxypropylcellulose) (HPC)): 100 % of control; T/C (dose: 400.0 mg/kg/injection, schedule: Q04DX003 (ip), vehicle: Klucel (hydroxypropylcellulose) (HPC)): 104 % of control

How did the T/C (dose: 12.5 mg/kg/injection, schedule: Q01DX005 (ip), vehicle: saline) turn out when CN(CO)c1nc(N(C)CO)nc(N(C)CO)n1 was run?
Its T/C is 104 % of control.

What about the T/C (dose: 25.0 mg/kg/injection, schedule: Q01DX005 (ip), vehicle: saline) of the same compound?
Its T/C is 113 % of control.

And the T/C (dose: 100.0 mg/kg/injection, schedule: Q01DX005 (ip), vehicle: saline)?
The T/C was 155 % of control.

For Fc1ccc(C(Cl)Cl)cc1, which T/C (dose: 100.0 mg/kg/injection, schedule: Q01DX009 (ip), vehicle: saline) is on record?
Its T/C is 104 % of control.

And the T/C (dose: 200.0 mg/kg/injection, schedule: Q01DX009 (ip), vehicle: saline)?
Its T/C is 109 % of control.

And the T/C (dose: 400.0 mg/kg/injection, schedule: Q01DX009 (ip), vehicle: saline)?
Its T/C is 118 % of control.

Which results are given for N#[N+]c1cnc([O-])[nH]c1=O?
T/C (dose: 1.25 mg/kg/injection, schedule: Q01DX010 (ip), vehicle: saline): 175 % of control; T/C (dose: 2.5 mg/kg/injection, schedule: Q01DX010 (ip), vehicle: saline): 185 % of control; T/C (dose: 5.0 mg/kg/injection, schedule: Q01DX010 (ip), vehicle: saline): 172 % of control and 210 % of control; T/C (dose: 10.0 mg/kg/injection, schedule: Q01DX010 (ip), vehicle: saline): 240 % of control and 177 % of control

What does the source list for Cc1nc2ccccc2n1C[c-]1[c-][c-][c-][c-]1.[Fe].[c-]1[c-][c-][cH-][c-]1?
T/C (dose: 50.0 mg/kg/injection, schedule: Q01DX009 (ip), vehicle: saline with Tween-80): 91 % of control; T/C (dose: 100.0 mg/kg/injection, schedule: Q01DX009 (ip), vehicle: saline with Tween-80): 113 % of control; T/C (dose: 200.0 mg/kg/injection, schedule: Q01DX009 (ip), vehicle: saline with Tween-80): 105 % of control

For CCOC1CC2c3ccccc3C1c1cccc[n+]12 (stereo unspecified), which T/C (dose: 9.37 mg/kg/injection, schedule: Q01DX009 (ip), vehicle: saline) is on record?
The T/C was 108 % of control.

What about the T/C (dose: 18.75 mg/kg/injection, schedule: Q01DX009 (ip), vehicle: saline) of the same compound?
Its T/C is 108 % of control.

What about the T/C (dose: 37.5 mg/kg/injection, schedule: Q01DX009 (ip), vehicle: saline) of the same compound?
Its T/C is 91 % of control.

With CS(C)=O.CS(C)=O.[Cl][Rh]([Cl])([Cl])[Cl] as the compound, how does the T/C (dose: 12.5 mg/kg/injection, schedule: Q01DX009 (ip), vehicle: saline) read?
Its T/C is 120 % of control.

What about the T/C (dose: 22.0 mg/kg/injection, schedule: Q01DX009 (ip), vehicle: saline) of the same compound?
The T/C was 116 % of control and 120 % of control.

What about the T/C (dose: 33.0 mg/kg/injection, schedule: Q01DX009 (ip), vehicle: saline) of the same compound?
The T/C was 95 % of control and 116 % of control.

What about the T/C (dose: 50.0 mg/kg/injection, schedule: Q01DX009 (ip), vehicle: saline) of the same compound?
Its T/C is 166 % of control.

What does the source list for O=[N+]([O-])c1ccccc1N=N/C(Cc1ccccc1)=N\Nc1ccccc1?
T/C (dose: 100.0 mg/kg/injection, schedule: Q01DX009 (ip), vehicle: Klucel (hydroxypropylcellulose) (HPC)): 120 % of control; T/C (dose: 200.0 mg/kg/injection, schedule: Q01DX009 (ip), vehicle: Klucel (hydroxypropylcellulose) (HPC)): 115 % of control

With CC1=C[S+](c2ccccc2)c2cccc3cc4ccccc4c1c23 (stereo unspecified) as the compound, how does the T/C (dose: 0.4 mg/kg/injection, schedule: Q01DX009 (ip), vehicle: saline with Tween-80) read?
Its T/C is 154 % of control.

What about the T/C (dose: 0.6 mg/kg/injection, schedule: Q01DX009 (ip), vehicle: saline with Tween-80) of the same compound?
The T/C was 165 % of control.

What about the T/C (dose: 0.9 mg/kg/injection, schedule: Q01DX009 (ip), vehicle: saline with Tween-80) of the same compound?
The T/C was 154 % of control and 155 % of control.

What about the T/C (dose: 2.5 mg/kg/injection, schedule: Q01DX009 (ip), vehicle: saline with Tween-80) of the same compound?
Its T/C is 116 % of control.

Which T/C (dose: 5.56 mg/kg/injection, schedule: Q01DX009 (ip), vehicle: other) does the source give for O=C(C=C(C(F)(F)F)C(F)(F)F)c1ccc(Br)cc1 here?
Its T/C is 113 % of control.

And the T/C (dose: 8.33 mg/kg/injection, schedule: Q01DX009 (ip), vehicle: other)?
The T/C was 113 % of control.

What about the T/C (dose: 12.5 mg/kg/injection, schedule: Q01DX009 (ip), vehicle: other) of the same compound?
The T/C was 109 % of control.

And the T/C (dose: 18.7 mg/kg/injection, schedule: Q01DX009 (ip), vehicle: other)?
The T/C was 109 % of control.

Which results are given for NC(N)=NC(N)=Nc1ccc(-c2ccc(N=C(N)N=C(N)N)cc2)cc1?
T/C [1]: 151 % of control; T/C (dose: 25.0 mg/kg/injection, schedule: Q01DX009 (ip), vehicle: saline with Tween-80): 89 % of control

How did the T/C (dose: 6.25 mg/kg/injection, schedule: Q01DX001 (ip), vehicle: saline with Tween-80) turn out when O=[N+]([O-])c1ccc(N/N=C(\COc2ccccc2)c2ccccc2)c([N+](=O)[O-])c1 was run?
The T/C was 95 % of control.

What about the T/C (dose: 12.5 mg/kg/injection, schedule: Q01DX001 (ip), vehicle: saline with Tween-80) of the same compound?
Its T/C is 100 % of control.

What about the T/C (dose: 25.0 mg/kg/injection, schedule: Q01DX001 (ip), vehicle: saline with Tween-80) of the same compound?
Its T/C is 104 % of control.

How did the T/C (dose: 13.2 mg/kg/injection, schedule: Q01DX009 (ip), vehicle: saline with Tween-80) turn out when Nc1nc(=S)c2ncn(C3OC(COC(=O)c4ccccc4)C(OC(=O)c4ccccc4)C3OC(=O)c3ccccc3)c2[nH]1 (stereo unspecified) was run?
Its T/C is 120 % of control.

And the T/C (dose: 33.0 mg/kg/injection, schedule: Q01DX009 (ip), vehicle: saline with Tween-80)?
Its T/C is 154 % of control.

And the T/C (dose: 75.0 mg/kg/injection, schedule: Q01DX009 (ip), vehicle: saline with Tween-80)?
The T/C was 90 % of control.

And the T/C (dose: 100.0 mg/kg/injection, schedule: Q04DX003 (ip), vehicle: saline)?
Its T/C is 163 % of control.

What does the source list for C=[CH][Sn][CH2]CCC?
T/C (dose: 12.5 mg/kg/injection, schedule: Q01DX009 (ip), vehicle: Klucel (hydroxypropylcellulose) (HPC)): 100 % of control; T/C (dose: 25.0 mg/kg/injection, schedule: Q01DX009 (ip), vehicle: Klucel (hydroxypropylcellulose) (HPC)): 103 % of control; T/C (dose: 50.0 mg/kg/injection, schedule: Q01DX009 (ip), vehicle: Klucel (hydroxypropylcellulose) (HPC)): 99 % of control

What does the source list for C=CS(=O)(=O)c1ccccc1?
T/C (dose: 18.0 mg/kg/injection, schedule: Q01DX009 (ip), vehicle: saline with Tween-80): 114 % of control; T/C (dose: 18.0 mg/kg/injection, schedule: Q04DX003 (ip), vehicle: saline with Tween-80): 90 % of control; T/C (dose: 24.0 mg/kg/injection, schedule: Q01DX009 (ip), vehicle: saline with Tween-80): 100 % of control; T/C (dose: 36.0 mg/kg/injection, schedule: Q01DX009 (ip), vehicle: saline with Tween-80): 116 % of control; T/C (dose: 36.0 mg/kg/injection, schedule: Q04DX003 (ip), vehicle: saline with Tween-80): 100 % of control; T/C (dose: 72.0 mg/kg/injection, schedule: Q01DX009 (ip), vehicle: saline with Tween-80): 114 % of control; T/C (dose: 72.0 mg/kg/injection, schedule: Q04DX003 (ip), vehicle: saline with Tween-80): 109 % of control

For O=C1N/C(=N\c2nc3ccccc3s2)c2ccccc21, which T/C (dose: 3.13 mg/kg/injection, schedule: Q01DX009 (ip), vehicle: saline with Tween-80) is on record?
Its T/C is 90 % of control.

And the T/C (dose: 6.25 mg/kg/injection, schedule: Q01DX009 (ip), vehicle: saline with Tween-80)?
The T/C was 92 % of control.

And the T/C [1]?
The T/C was 92 % of control.

Which results are given for C=C1C(=O)C2(C)OC2(C)C1C(=O)O (stereo unspecified)?
T/C (dose: 1.25 mg/kg/injection, schedule: Q01DX009 (ip), vehicle: Klucel (hydroxypropylcellulose) (HPC)): 98 % of control; T/C (dose: 2.5 mg/kg/injection, schedule: Q01DX009 (ip), vehicle: Klucel (hydroxypropylcellulose) (HPC)): 114 % of control; T/C (dose: 5.0 mg/kg/injection, schedule: Q01DX009 (ip), vehicle: Klucel (hydroxypropylcellulose) (HPC)): 120 % of control; T/C (dose: 10.0 mg/kg/injection, schedule: Q01DX009 (ip), vehicle: Klucel (hydroxypropylcellulose) (HPC)): 109 % of control

How did the T/C (dose: 0.25 mg/kg/injection, schedule: Q01DX009 (ip), vehicle: saline with Tween-80) turn out when CC[CH2][Sn]([CH2]CC)([CH2]CC)[O][Sn]([CH2]CC)([CH2]CC)[CH2]CC was run?
The T/C was 90 % of control.

And the T/C (dose: 0.25 mg/kg/injection, schedule: Q04DX003 (ip), vehicle: saline with Tween-80)?
Its T/C is 100 % of control.

What about the T/C (dose: 0.5 mg/kg/injection, schedule: Q01DX009 (ip), vehicle: saline with Tween-80) of the same compound?
Its T/C is 95 % of control.

What about the T/C (dose: 0.5 mg/kg/injection, schedule: Q04DX003 (ip), vehicle: saline with Tween-80) of the same compound?
Its T/C is 104 % of control.

And the T/C (dose: 1.0 mg/kg/injection, schedule: Q01DX009 (ip), vehicle: saline with Tween-80)?
Its T/C is 100 % of control.

What about the T/C (dose: 1.0 mg/kg/injection, schedule: Q04DX003 (ip), vehicle: saline with Tween-80) of the same compound?
The T/C was 100 % of control.

With O=C(Nc1ccc(NC(=O)c2ccc(C3=NCCCN3)cc2)cc1)c1ccc(C2=NCCCN2)cc1 as the compound, how does the T/C (dose: 33.0 mg/kg/injection, schedule: Q04DX003 (ip), vehicle: saline with Tween-80) read?
Its T/C is 159 % of control.

What about the T/C (dose: 50.0 mg/kg/injection, schedule: Q04DX003 (ip), vehicle: saline with Tween-80) of the same compound?
Its T/C is 153 % of control and 181 % of control.

What about the T/C (dose: 75.0 mg/kg/injection, schedule: Q04DX003 (ip), vehicle: saline with Tween-80) of the same compound?
The T/C was 168 % of control and 207 % of control.

What does the source list for C1=CCC(COC(c2ccccc2)(c2ccccc2)c2ccccc2)C(COC(c2ccccc2)(c2ccccc2)c2ccccc2)C1 (stereo unspecified)?
T/C (dose: 100.0 mg/kg/injection, schedule: Q01DX001 (ip), vehicle: saline with Tween-80): 93 % of control; T/C (dose: 200.0 mg/kg/injection, schedule: Q01DX001 (ip), vehicle: saline with Tween-80): 96 % of control; T/C (dose: 400.0 mg/kg/injection, schedule: Q01DX001 (ip), vehicle: saline with Tween-80): 88 % of control

— PubChem BioAssay AID328 (DTP/NCI, 2004)
